Among the data in ChEMBL document CHEMBL1909046, “DrugMatrix in vitro pharmacology data” are IC50 and Ki values, retold here.

The IC50 is the concentration that inhibits the measured activity by half. In general, Ki refers to the equilibrium dissociation constant of an inhibitor or competing ligand from its target.

Assay [1] addresses Melanocortin receptor 3 (Homo sapiens, UniProt P41968). The assay is classed as cell membranes, Membrane. Particulars: hek293.
Assay [2] can be described thus: DRUGMATRIX: GABAA, Chloride Channel, TBOB radioligand binding (ligand: [3H] TBOB). Particulars: Not Active = under 50% inhibition at 10 µM. In kind it is cell membranes, Rattus norvegicus, Wistar, Cerebral cortex, Membrane.
Assay [3] has as its target T1, Caspase-1 (Homo sapiens, UniProt P29466).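 Further: Caspase-1 enzyme inhibition assay with a peptide substrate; in other assays of this panel Not Active means under 50% inhibition at 10 µM.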
T1 sequence (P29466 whole entry): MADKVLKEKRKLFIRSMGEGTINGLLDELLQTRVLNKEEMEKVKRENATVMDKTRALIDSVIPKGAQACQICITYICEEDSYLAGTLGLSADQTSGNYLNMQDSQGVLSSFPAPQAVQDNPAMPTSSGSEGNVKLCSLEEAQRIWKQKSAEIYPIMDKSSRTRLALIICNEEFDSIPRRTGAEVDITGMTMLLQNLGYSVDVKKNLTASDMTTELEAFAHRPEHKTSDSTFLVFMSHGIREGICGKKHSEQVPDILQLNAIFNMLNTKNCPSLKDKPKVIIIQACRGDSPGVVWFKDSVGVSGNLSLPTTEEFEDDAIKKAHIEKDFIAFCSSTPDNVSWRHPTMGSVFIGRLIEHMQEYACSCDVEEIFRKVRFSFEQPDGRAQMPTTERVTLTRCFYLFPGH
Further details: species or system Escherichia coli.

Assay [4] concerns the target 5-hydroxytryptamine receptor 6 (Homo sapiens, UniProt P50406). In kind it is cell membranes, HeLa, Membrane. Further: in other assays of this panel Not Active means under 50% inhibition at 10 µM.
Assay [5] in a line: DRUGMATRIX: Potassium Channel [KATP] radioligand binding (ligand: [3H] Glyburide). Particulars: hit-t15; Not Active = under 50% inhibition at 10 µM. The assay is classed as cell membranes, Membrane.
Assay [6] in a line: DRUGMATRIX: Glutamate, NMDA, Phencyclidine radioligand binding (ligand: [3H] TCP). In kind it is cell membranes, Rattus norvegicus, Wistar, Cerebral cortex, Membrane. Particulars: Not Active = under 50% inhibition at 10 µM.

Sequence of Melanocortin receptor 3 (P41968 whole entry): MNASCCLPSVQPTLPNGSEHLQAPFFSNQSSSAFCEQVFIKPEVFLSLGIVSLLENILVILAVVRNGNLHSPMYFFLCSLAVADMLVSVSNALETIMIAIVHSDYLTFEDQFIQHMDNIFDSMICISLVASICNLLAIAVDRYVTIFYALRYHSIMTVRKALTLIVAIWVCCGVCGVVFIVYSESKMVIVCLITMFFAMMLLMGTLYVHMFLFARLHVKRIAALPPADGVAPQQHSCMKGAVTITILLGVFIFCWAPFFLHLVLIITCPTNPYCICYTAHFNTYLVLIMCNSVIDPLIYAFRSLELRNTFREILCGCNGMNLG
Sequence of 5-hydroxytryptamine receptor 6 (P50406 whole entry): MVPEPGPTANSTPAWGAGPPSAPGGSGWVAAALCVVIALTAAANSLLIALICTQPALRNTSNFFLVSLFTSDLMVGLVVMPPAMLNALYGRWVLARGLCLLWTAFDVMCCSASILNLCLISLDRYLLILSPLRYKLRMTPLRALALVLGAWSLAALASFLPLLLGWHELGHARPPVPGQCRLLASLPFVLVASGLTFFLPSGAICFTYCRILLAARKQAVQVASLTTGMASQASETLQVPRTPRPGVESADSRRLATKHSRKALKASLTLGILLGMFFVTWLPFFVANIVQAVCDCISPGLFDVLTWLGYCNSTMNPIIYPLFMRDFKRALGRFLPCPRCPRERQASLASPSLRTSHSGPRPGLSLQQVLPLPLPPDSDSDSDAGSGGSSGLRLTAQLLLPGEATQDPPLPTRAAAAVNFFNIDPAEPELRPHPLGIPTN

For the molecule `CCOc1nc2cccc(C(=O)O)c2n1Cc1ccc(-c2ccccc2-c2nnn[nH]2)cc1`, the IC50 result in assay [1], in assay [2], in assay [3], in assay [4] (hela), in assay [5] and in assay [6] was “Not Active” in each case. Besides, the Ki entry in assay [2], in assay [5] and in assay [6] was “Not Active” each time.

On to `O=C(O)CCCc1cccs1`, for which the IC50 result in assay [1], in assay [2], in assay [3], in assay [4] (hela), in assay [5] and in assay [6] was “Not Active” in each case. Further, the Ki entry in assay [2], in assay [5] and in assay [6] was “Not Active” each time.

Consider `COc1ccccc1N`, for which the IC50 entry in assay [1], in assay [2], in assay [3], in assay [4] (hela), in assay [5] and in assay [6] was “Not Active” in each case. The Ki result in assay [2], in assay [5] and in assay [6] was “Not Active” throughout.

As to `O=C(c1ccccc1F)N1CCC(Cc2ccccc2)CC1`, the IC50 entry in assay [1], in assay [2], in assay [3], in assay [4] (hela), in assay [5] and in assay [6] was “Not Active” throughout. The Ki entry in assay [2], in assay [5] and in assay [6] was “Not Active” each time.

For `Cc1c(O)cccc1C(=O)N[C@@H](CSc1ccccc1)[C@H](O)CN1C[C@H]2CCCC[C@H]2C[C@H]1C(=O)NC(C)(C)C`, the 50% inhibitory concentration (IC50) result in assay [1], in assay [2], in assay [3], in assay [4] (hela), in assay [5] and in assay [6] was “Not Active” in each case. In addition, the Ki result in assay [2], in assay [5] and in assay [6] was “Not Active” each time.

For the molecule `CC(O)COC[C@H]1O[C@@H]2O[C@H]3[C@H](O)[C@@H](O)[C@@H](O[C@H]4[C@H](O)[C@@H](O)[C@@H](O[C@H]5[C@H](O)[C@@H](O)[C@@H](O[C@H]6[C@H](O)[C@@H](O)[C@@H](O[C@H]7[C@H](O)[C@@H](O)[C@@H](O[C@H]8[C@H](O)[C@@H](O)[C@@H](O[C@H]1[C@H](O)[C@H]2O)O[C@@H]8COCC(C)O)O[C@@H]7COCC(C)O)O[C@@H]6COCC(C)O)O[C@@H]5COCC(C)O)O[C@@H]4COCC(C)O)O[C@@H]3COCC(C)O` (stereo partly drawn) [2-HYDROXYPROPYL-BETA-CYCLODEXTRIN], the IC50 entry in assay [1], in assay [2], in assay [3], in assay [4] (hela), in assay [5] and in assay [6] was “Not Active” each time. Besides, the Ki result in assay [2], in assay [5] and in assay [6] was “Not Active” each time.

Regarding `NC(=O)c1cccc(N)c1` [3-AMINOBENZAMIDE], the IC50 result in assay [1], in assay [2], in assay [3], in assay [4] (hela), in assay [5] and in assay [6] was “Not Active” throughout. Also, the Ki entry in assay [2], in assay [5] and in assay [6] was “Not Active” throughout.

For `C[C@H]1O[C@H](O[C@H]2[C@H](O)[C@@H](O)[C@@H](O[C@H]3[C@H](O)[C@@H](O)C(O)O[C@@H]3CO)O[C@@H]2CO)[C@H](O)[C@@H](O)[C@@H]1N[C@H]1C=C(CO)[C@@H](O)[C@H](O)[C@H]1O` (stereo partly drawn) [ACARBOSE], the IC50 result in assay [1], in assay [2], in assay [3], in assay [4] (hela), in assay [5] and in assay [6] was “Not Active” throughout. The Ki result in assay [2], in assay [5] and in assay [6] was “Not Active” each time.

On to `CC[C@H]1[C@@H]2C[C@H]3[C@@H]4N(C)c5ccccc5[C@]45C[C@@H]([C@@H]2[C@H]5O)N3[C@@H]1O` [AJMALINE], for which the IC50 entry in assay [1], in assay [2], in assay [3], in assay [4] (hela), in assay [5] and in assay [6] was “Not Active” in each case. In addition, the Ki result in assay [2], in assay [5] and in assay [6] was “Not Active” in each case.

Take `NC12CC3CC(CC(C3)C1)C2` [AMANTADINE]: the IC50 result is “Not Active” in assay [1]; “Not Active” in assay [2]; “Not Active” in assay [3]; “Not Active” in assay [4] (hela); “Not Active” in assay [5]; 32 µM in assay [6] (read-out: IC50). Also, the Ki entry in assay [2] was “Not Active”; in assay [5], “Not Active”; in assay [6] (read-out: Ki), 21.7 µM.

`NCCCNCCSP(=O)(O)O` [AMIFOSTINE]: the IC50 result in assay [1], in assay [2], in assay [3], in assay [4] (hela), in assay [5] and in assay [6] was “Not Active” throughout. Further, the inhibitory constant (Ki) result in assay [2], in assay [5] and in assay [6] was “Not Active” in each case.

Turning to `CN(C)CCC=C1c2ccccc2CCc2ccccc21` [AMITRIPTYLINE], the IC50 entry was “Not Active” in assay [1]; “Not Active” in assay [2]; “Not Active” in assay [3]; 0.14 µM in assay [4] (read-out: IC50); “Not Active” in assay [5]; “Not Active” in assay [6]. In addition, the Ki result in assay [2], in assay [5] and in assay [6] was “Not Active” each time.

For `CC(=O)Oc1ccccc1C(=O)O` [ASPIRIN], the IC50 result in assay [1], in assay [2], in assay [3], in assay [4] (hela), in assay [5] and in assay [6] was “Not Active” each time. Further, the Ki result in assay [2], in assay [5] and in assay [6] was “Not Active” each time.

Turning to `CC(C)c1c(C(=O)Nc2ccccc2)c(-c2ccccc2)c(-c2ccc(F)cc2)n1CC[C@@H](O)C[C@@H](O)CC(=O)O` [ATORVASTATIN], the IC50 result in assay [1], in assay [2], in assay [3], in assay [4] (hela), in assay [5] and in assay [6] was “Not Active” throughout. Also, the Ki result in assay [2], in assay [5] and in assay [6] was “Not Active” throughout.

On to `CC(=O)OC[C@H]1O[C@@H](n2ncc(=O)[nH]c2=O)[C@H](OC(C)=O)[C@@H]1OC(C)=O` [AZARIBINE], for which the half-inhibitory concentration (IC50) result in assay [1], in assay [2], in assay [3], in assay [4] (hela), in assay [5] and in assay [6] was “Not Active” throughout. In addition, the Ki result in assay [2], in assay [5] and in assay [6] was “Not Active” in each case.

On to `C[C@H]1[C@H](NC(=O)/C(=N\OC(C)(C)C(=O)O)c2csc(N)n2)C(=O)N1S(=O)(=O)O` [AZTREONAM], for which the IC50 entry in assay [1], in assay [2], in assay [3], in assay [4] (hela), in assay [5] and in assay [6] was “Not Active” each time. For the same molecule, the Ki entry in assay [2], in assay [5] and in assay [6] was “Not Active” throughout.

Regarding `O=C(O)CCNC(=O)c1ccc(/N=N/c2ccc(O)c(C(=O)O)c2)cc1` [BALSALAZIDE], the IC50 result in assay [1], in assay [2], in assay [3], in assay [4] (hela), in assay [5] and in assay [6] was “Not Active” throughout. Moreover, the inhibition constant (Ki) result in assay [2], in assay [5] and in assay [6] was “Not Active” throughout.

`COc1cc(OC)c(C(=O)CCCN2CCCC2)c(OC)c1` [BUFLOMEDIL]: the IC50 result in assay [1], in assay [2], in assay [3], in assay [4] (hela), in assay [5] and in assay [6] was “Not Active” throughout. Moreover, the Ki entry in assay [2], in assay [5] and in assay [6] was “Not Active” throughout.

`Cn1c(=O)c2c(ncn2C)n(C)c1=O` [CAFFEINE]: the IC50 entry in assay [1], in assay [2], in assay [3], in assay [4] (hela), in assay [5] and in assay [6] was “Not Active” each time. In addition, the Ki result in assay [2], in assay [5] and in assay [6] was “Not Active” in each case.

Take `CCn1cc(C(=O)O)c(=O)c2cc(F)c(N3CCNC(C)C3)c(F)c21` (stereo not drawn) [LOMEFLOXACIN]: the IC50 entry in assay [1], in assay [2], in assay [3], in assay [4] (hela) and in assay [6] was “Not Active” throughout. Besides, the Ki entry in assay [2] and in assay [6] was “Not Active” each time.
